Values quoted from earlier work in patent US9238083B2, “Molecular probe for imaging of pancreatic islets and use of the same” (Kyoto University, priority 2009, dated 2016).

Assays:
pancreatic islet cells = conditions: cited from earlier work
[1] = system: GLP-1R-positive tumor cells; conditions: cited from earlier work

Substance: Lys^40(Ahx-DTPA-^111In)Exendin-4(9-39)
- uptake in pancreatic islets (pancreatic islet cells): about 0.4%
- affinity with respect to GLP-1R (pancreatic islet cells; conclusion from the uptake results): low affinity
- uptake in the GLP-1R-positive tumor cells [1]: about 7.5%
